Data published in patent US20080293698A1, “Methods and Compositions for Treating Arg” (priority 2005, published 2008).
Values joined by “and” are separate entries in the source; they are usually repeats but may differ in a detail not shown here. Identical values can stand only once. Counter-ions that a name gives are not always drawn.

Columns and labels:
GHB receptor = conditions: reported in United States patent application 20020132846; cited from earlier work
human subjects = assay: 4-HPA and 4-HPA lactone administered to human subjects (Example 53); conditions: for effects experienced by the subjects: at equivalent doses of GHB toxicity or sleep would have occurred
patient with ARG = assay: Case reports: patients with ARG treated with GABAnergic agents prior to sleep; format: in vivo, human
Text: The patient was then switched to monotherapy using only NaGHB 4.5 grams prior to the intended sleep time and a second dose of 4.5 grams four hours after the first. […] The patient was switched back to treatment with multiple GABAnergic agents and again had dramatic reduction in fatigue. On a scale from 0 to 10 where 10 is the most tired, the patient rated the fatigue at 10 without treatment, 3 to 4 with treatment on multiple GABAnergic agents, and 10 on monotherapy with NaGHB.
A patient with ARG was treated with the Class IV agent zolpidem 10 mg, The Class III agent alprazolam 2 mg, the Class V agent gabapentin 200 mg, and the Class II agent sodium salt of gamma-hydroxyl butyrate 5.25 grams prior to sleep. The patient was treated chronically on a nightly basis. Sometimes, according to the patient's judgement, 3.75 grams of the sodium salt of gamma-hydroxyl butyric acid was consumed upon awakening, which usually was about six hours after the first dose of medications.
In another example a patient with ARG was given the Class I agent 660 ml red wine 13.5% alcohol by volume, the Class III agent alprazolam 3 mg, the Class V agent gabapentin 300 mg, and the Class IV agent 10 mg zolpidem. Five hours later, the patient was awoken and given the Class II agent the sodium salt of gamma-hydroxyl butyric acid 3 grams.
In another example a patient with ARG was treated with the Class I agent 660 ml red wine 13.5% alcohol by volume, the Class I agent liqeur 30% alcohol by volume 200 ml, the Class III agent alprazolam 2 mg, the […] 200 mg, and the Class II agent the sodium salt of gamma-hydroxyl butyric acid 4 grams prior to sleep.
A patient with acquired resistance to GABAnergic agents was treated with the Class III agent alprazolam 2 mg, the Class IV agent zolpidem 10 mg, the Class V agent gabapentin 200 mg, and the Class II agent NaGHB 7 grams. […] 7 grams NaGHB as a single dose is a large dose, which may be too toxic for some patients.
A patient with acquired resistance to GABAnergic agents was treated with the Class I agent red wine 660 ml 13.5% alcohol by volume, then the Class III agent alprazolam 3 mg, the Class V agent gabapentin 300 mg, the Class IV agent zolpidem 10 mg, and the Class II agent NaGHB 9 grams. 4 hours after sleep onset the patient awoke in a neighboring room in a pool of vomitus of partially digested wine. The patient was lucid and had mild nausea. The patient went back to sleep in bed for an additional 2 hours and was able to work the next day. […] The combination of red wine and such large doses of GHB are not typically recommended by the inventor and can be fatal.
A patient with ARG was given the Class III agent alprazolam 7 mg, the Class IV agent zolpidem 10 mg, and the Class V agent gabapentin 300 mg prior to sleep. […] The dose of alprazolam may be reduced by adding a Class I or Class II agent to the regimen.
A patient with ARG who had minimal obstructive sleep apnea was chronically treated with the Class I agent red wine about 200 to 1500 ml 13.5% alcohol by volume, the Class IV agent zolpidem 10 mg, the Class III agent alprazolam 3 mg, and the Class V agent gabapentin 300 mg prior to sleep. Sufficient wine was consumed to produce moderate to strong sleepiness and then the other GABAminergic medications were consumed. When the volume of wine on a particular night required to induce strong sleepiness was inconvenient, the patient quickly drank liqeur 30% alcohol by volume, typically about 160 ml, in order to induce strong sleepiness.
A patient with ARG who had minimal obstructive sleep apnea was chronically treated with the Class I agent red wine about 660 to 1500 ml about 13% alcohol by volume, the Class IV agent zolpidem 10 mg, the Class III agent alprazolam 3 mg, and the Class V agent gabapentin 300 mg prior to sleep. Sufficient wine was consumed to produce moderate to strong sleepiness and then the other GABAnergic medications were consumed. […]

[1] = tested on: patient with a sleeping disorder; assay: Case report: patient with a sleeping disorder treated with alprazolam, zolpidem, gabapentin and NaGHB (Example 86); format: in vivo, human
Protocol: Overnight polysomnography had shown minimal obstructive sleep apnea with 2 apneas per hour of sleep. The patient was placed on a regimen of the Class III agent alprazolam, the Class IV agent zolpidem, the Class V agent gabapentin, and the Class II agent the sodium salt of gamma-hydroxyl butyric acid (GHB), which were administered prior to sleep for the treatment of sleeping disorders. The initial dose of GHB was prescribed as 2.25 grams prior to sleep and repeat dose of 2.25 grams to be taken 2.5 to 4 hours after sleep onset.
At a dose of 3 grams prior to sleep and a second dose upon awakening, the patient was eating only one to two small meals per day. Their maximum previous weight had been 169 lbs and their baseline weight was 159 pounds. They lost weight down to 145 lbs and looked gaunt. They believed that the GHB had suppressed their appetite and consulted an endocrinologist, who did a thorough medical evaluation including an am cortisol, a comprehensive chemistry profile, a CBC, and thyroid studies, all of which were normal. The patient discontinued the GHB and their appetite returned within two days. Over roughly five months, they then gained weight up to 195 lbs and their weight remained stable.

[2] = Chemical stability of GHB as a function of pH (cyclization to GBL); format: physicochemical
patients = conditions: therapeutic doses, GHB as lone agent; cited from earlier work
pH of NaGHB solution = format: physicochemical; conditions: 240 mg per ml
Protocol: The pH of NaGHB at 240 mg per ml is approximately 9.5, at which neither pathogenic nor non-pathogenic organisms grow. As the concentration of NaGHB is increased, the pH is yet higher. […] Concentrated NaGHB is highly toxic regardless of pH and must be diluted prior to consumption. The pH of NaGHB at 500 mg/ml drops rapidly into the physiologic range upon dilution. Highly concentrated GBL and 1,4-butanediol are known to be resistant to microbial growth, require no special storage procedures, and likewise must be diluted prior to consumption, typically to 5% to 30% solutions but more preferably 5% to 20%.

[3] = tested on: patients with fibromyalgia or chronic fatigue syndrome; conditions: cited from earlier work
[4] = tested on: patients with fibromyalgia; conditions: 3 grams NaGHB at bedtime and a second dose about 4 h later; cited from earlier work

CC1CCC(=O)O1 (stereo not drawn) [4-HPA lactone, 4-hydroxyl pentanoic acid lactone]
binding to the GHB receptor (GHB receptor): bind the GHB receptor
toxicity compared with GHB (human subjects): less toxic than GHB
effects experienced by the subjects (human subjects): relaxing effects

CC(O)CCC(=O)O (stereo not drawn) [Example 4-HPA, 4-hydroxyl pentanoic acid]
toxicity compared with GHB (human subjects): less toxic than GHB
effects experienced by the subjects (human subjects): relaxing effects

O=C(O)CCCO [GHB, gamma hydroxyl butyric acid]
sleep induction by the second dose of GHB (patient with ARG; 3.75 grams upon awakening, about six hours after the first dose of medications): usually did not induce sleep
sleep induction by the second dose of GHB ([1]; 3.75 grams upon awakening): usually did not induce sleep
body weight on treatment ([1]; baseline weight 159 pounds, 3 grams prior to sleep and a second dose upon awakening): 145 lbs
medical evaluation (am cortisol, comprehensive chemistry profile, CBC, thyroid studies) ([1]; during weight loss on GHB): normal
time to return of appetite after discontinuing GHB ([1]; human, in vivo): two
appetite ([1]; within one week of beginning to take the GHB): marked decrease in appetite
pH at which gamma-butyryl lactone (cyclized form) begins to form [2]: ≤ 6
duration of the sleep inducing effect (patients): 2 to 3 h and 2 to 4 h

O=C(O)CCCO [NaGHB, sodium salt of gamma-hydroxyl butyric acid]
improvement on monotherapy (patient with ARG; NaGHB 4.5 grams twice per sleep period, no other GABAnergic agent): no improvement
sleep induction by the first dose (patient with ARG; monotherapy, NaGHB 4.5 grams prior to the intended sleep time): did not induce sleep at all
duration of sleep induced by the second dose (patient with ARG; monotherapy, second dose of 4.5 grams four hours after the first): two
side effects / toxicity (patient with ARG; patient with ARG on the regimen): state of near stupor
fatigue rated by the patient (patient with ARG; scale from 0 to 10 where 10 is the most tired, 10 without treatment): 10
pH of the solution (pH of NaGHB solution): approximately 9.5
sleep obtained per dose ([3]; 2.25 grams NaGHB at bedtime and again four hours later, in some instances): 2 to 3 h
effect in patients diagnosed with chronic fatigue syndrome ([3]; pilot open label trial, quoted from document C): no effect
patients in the treatment arm who withdrew due to side effects [4]: Six of 24

cyanocobalamin
fatigue on the increased dose of cyanocobalamin (patient with ARG; 2000 mcg IM about every three days, in addition to multiple GABAnergic agents): mild decrease in fatigue
mouth sores under vitamin treatment (patient with ARG; cyanocobalamin 500 mcg IM once, 'rotate' 5 mg orally, multivitamin containing thiamine 1.5 mg, patient on Example 90a regimen): resolved
